Data published in ChEMBL document CHEMBL4118197, “The discovery and preclinical evaluation of BMS-707035, a potent HIV-1 integrase strand transfer inhibitor” (Bioorg Med Chem Lett, 2018).

Target: Human immunodeficiency virus type 1 integrase (Human immunodeficiency virus 1, UniProt Q7ZJM1)
Test: Inhibition of HIV1 integrase strand transfer activity

Human immunodeficiency virus type 1 integrase, sequence (Q7ZJM1 whole entry): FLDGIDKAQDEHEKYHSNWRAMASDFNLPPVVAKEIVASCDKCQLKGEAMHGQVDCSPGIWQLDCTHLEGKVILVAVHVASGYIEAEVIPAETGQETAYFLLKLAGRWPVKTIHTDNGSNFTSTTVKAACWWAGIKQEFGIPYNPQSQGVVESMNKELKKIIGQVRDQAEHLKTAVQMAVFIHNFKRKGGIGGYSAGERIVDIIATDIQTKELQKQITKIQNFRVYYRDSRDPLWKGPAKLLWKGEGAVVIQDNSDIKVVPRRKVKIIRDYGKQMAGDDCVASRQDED

| IC50 [nM] | Compound |
| --- | --- |
| 3 | CC1(C)OCCn2c1nc(C(=O)NCc1ccc(F)c(Cl)c1)c(O)c2=O |
| 10 | CC1(C)OCCn2c1nc(C(=O)NCc1ccc(F)cc1Cl)c(O)c2=O |
